Test results published in PubChem BioAssay AID1259411 (Chemical Carcinogenesis Research Information System (CCRIS), 2018).
The source made the active and inactive calls. How the calls were made is not given here.

Test system: rodent carcinogenicity bioassays, tumor incidence
Experiment: CCRIS carcinogenicity studies
How it was run: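 Archive of carcinogenicity, mutagenicity, tumor promotion and tumor inhibition results drawn from journals, NCI reports and other sources, expert-reviewed; covers 1985-2011 and is no longer updated.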

Measured: carcinogen call

CC(=O)Nc1ccc(N=Nc2cc(C)ccc2O)cc1
inactive: Species: MOUSE, Strain/Sex: B6C3F1/MALE, Route: ORAL, Dose: 0, 2500, 5000 PPM IN DIET, Dose: 0, 2500, 5000 PPM IN DIET inactive; negative | Species: RAT, Strain/Sex: F344/FEMALE, Route: ORAL, Dose: 0, 5000, 10000 PPM IN DIET, Dose: 0, 5000, 10000 PPM IN DIET inactive; negative
active: Species: MOUSE, Strain/Sex: B6C3F1/FEMALE, Route: ORAL, Dose: 0, 2500, 5000 PPM IN DIET, Dose: 0, 2500, 5000 PPM IN DIET, Tumor Site: Type of Lesion: LIVER: HEPATOCELLULAR ADENOMA active; positive | Species: RAT, Strain/Sex: F344/MALE, Route: ORAL, Dose: 0, 5000, 10000 PPM IN DIET, Dose: 0, 5000, 10000 PPM IN DIET, Tumor Site: Type of Lesion: LIVER: NEOPLASTIC NODULE active; positive

Nc1ccc(Nc2ccccc2)cc1
inactive: Species: MOUSE, Strain/Sex: B6C3F1/FEMALE, Route: ORAL, Dose: 0, 3672, 8170 PPM IN DIET, TWA, Dose: 0, 3672, 8170 PPM IN DIET, TWA inactive; negative | Species: MOUSE, Strain/Sex: B6C3F1/MALE, Route: ORAL, Dose: 0, 2057, 4114 PPM IN DIET, TWA, Dose: 0, 2057, 4114 PPM IN DIET, TWA inactive; negative | Species: RAT, Strain/Sex: F344/FEMALE, Route: ORAL, Dose: 0, 600, 1200 PPM IN DIET, Dose: 0, 600, 1200 PPM IN DIET inactive; negative | Species: RAT, Strain/Sex: F344/MALE, Route: ORAL, Dose: 0, 600, 1200 PPM IN DIET, Dose: 0, 600, 1200 PPM IN DIET inactive; negative

CC(C)[C@@H]1CC[C@@H](C)C[C@H]1O
inactive: Species: MOUSE, Strain/Sex: B6C3F1/FEMALE, Route: ORAL, Dose: 0, 2000, 4000 PPM IN DIET, Dose: 0, 2000, 4000 PPM IN DIET inactive; negative | Species: MOUSE, Strain/Sex: B6C3F1/MALE, Route: ORAL, Dose: 0, 2000, 4000 PPM IN DIET, Dose: 0, 2000, 4000 PPM IN DIET inactive; negative | Species: RAT, Strain/Sex: F344/FEMALE, Route: ORAL, Dose: 0, 3750, 7500 PPM IN DIET, Dose: 0, 3750, 7500 PPM IN DIET inactive; negative | Species: RAT, Strain/Sex: F344/MALE, Route: ORAL, Dose: 0, 3750, 7500 PPM IN DIET, Dose: 0, 3750, 7500 PPM IN DIET inactive; negative

CCN(N=O)C(=O)NCC(C)=O
active: Species: RAT, Strain/Sex: F344/FEMALE, Route: GAVAGE, Dose: 0, 9.5, 19 MG/ML IN CORN OIL/ETHYL ACETATE (2:1) 2/WK FOR 30 WK (STUDY DURATION: LIFETIME), Dose: 0, 9.5, 19 MG/ML IN CORN OIL/ETHYL ACETATE (2:1) 2/WK FOR 30 WK (STUDY DURATION: LIFETIME), Tumor Site: Type of Lesion: LUNG: TUMOR, MAMMARY GLAND: CARCINOMA, UTERUS: TUMOR, FORESTOMACH: TUMOR, SPLEEN: TUMOR, ZYMBAL GLAND: TUMOR, SMALL INTE, Tumor Site: Type of Lesion: LUNG: TUMOR, MAMMARY GLAND: CARCINOMA, UTERUS: TUMOR, FORESTOMACH: TUMOR, SPLEEN: TUMOR, ZYMBAL GLAND: TUMOR, SMALL INTE active; positive | Species: RAT, Strain/Sex: F344/FEMALE, Route: ORAL, Dose: 0, 40, 80 MG/L IN DRINKING WATER 5 D/WK FOR 30 WK (STUDY DURATION: LIFETIME), Dose: 0, 40, 80 MG/L IN DRINKING WATER 5 D/WK FOR 30 WK (STUDY DURATION: LIFETIME), Tumor Site: Type of Lesion: LIVER: TUMOR, LUNG: TUMOR, MAMMARY GLAND: CARCINOMA, UTERUS: TUMOR, THYROID: FOLLICULAR TUMOR, COLON: TUMOR, NERVOUS SYS, Tumor Site: Type of Lesion: LIVER: TUMOR, LUNG: TUMOR, MAMMARY GLAND: CARCINOMA, UTERUS: TUMOR, THYROID: FOLLICULAR TUMOR, COLON: TUMOR, NERVOUS SYS active; positive | Species: RAT, Strain/Sex: F344/MALE, Route: GAVAGE, Dose: 0, 9.5, 19 MG/ML IN CORN OIL/ETHYL ACETATE (2:1) 2/WK FOR 30 WK (STUDY DURATION: LIFETIME), Dose: 0, 9.5, 19 MG/ML IN CORN OIL/ETHYL ACETATE (2:1) 2/WK FOR 30 WK (STUDY DURATION: LIFETIME), Tumor Site: Type of Lesion: LIVER: TUMOR, LUNG: TUMOR, MESOTHELIUM: TUMOR, NERVOUS SYSTEM: TUMOR, THYROID: FOLLICULAR TUMOR, FORESTOMACH: TUMOR, SPL, Tumor Site: Type of Lesion: LIVER: TUMOR, LUNG: TUMOR, MESOTHELIUM: TUMOR, NERVOUS SYSTEM: TUMOR, THYROID: FOLLICULAR TUMOR, FORESTOMACH: TUMOR, SPL active; positive | Species: RAT, Strain/Sex: F344/MALE, Route: ORAL, Dose: 0, 40, 80 MG/L IN DRINKING WATER FOR 5 D/WK FOR 30 WK (STUDY DURATION: LIFETIME), Dose: 0, 40, 80 MG/L IN DRINKING WATER FOR 5 D/WK FOR 30 WK (STUDY DURATION: LIFETIME), Tumor Site: Type of Lesion: LUNG: TUMOR, THYROID: FOLLICULAR TUMOR, COLON: TUMOR, MESOTHELIUM: TUMOR, NERVOUS SYSTEM: TUMOR, SKIN: TUMOR, ZYMBAL GLA, Tumor Site: Type of Lesion: LUNG: TUMOR, THYROID: FOLLICULAR TUMOR, COLON: TUMOR, MESOTHELIUM: TUMOR, NERVOUS SYSTEM: TUMOR, SKIN: TUMOR, ZYMBAL GLA active; positive

COC1=CC(=O)C[C@@H](C)[C@]12Oc1c(Cl)c(OC)cc(OC)c1C2=O
active: Species: MOUSE, Strain/Sex: CD-1/MALE,FEMALE, Route: ORAL, Dose: 1% IN DIET FOR 12 TO 16 MO, Tumor Site: Type of Lesion: LIVER: HEPATOMA active; positive | Species: MOUSE, Strain/Sex: ICR/MALE, Route: SUBCUTANEOUS, Dose: 0.5, 0.5, 1.0 OR 1.0 MG SUSPENDED IN TRICAPRYLIN (3 MG/ANIMAL, TOTAL DOSE) ON DAYS 1, 7, 14 AND 21 OF AGE, Tumor Site: Type of Lesion: LIVER: HEPATOMA active; positive

CNN
active: Species: HAMSTER, Route: ORAL, Tumor Site: Type of Lesion: LIVER active; positive | Species: HAMSTER, Strain/Sex: SYRIAN/MALE, Route: INHALATION, Dose: 0, 0.2, 2, 5 PPM 6 HR/D 5 D/WK FOR 1 YR (STUDY DURATION: 1 YR), Dose: 0, 0.2, 2, 5 PPM 6 HR/D 5 D/WK FOR 1 YR (STUDY DURATION: 1 YR), Tumor Site: Type of Lesion: NASAL CAVITY: ADENOMA active; positive | Species: MOUSE, Route: ORAL, Tumor Site: Type of Lesion: LUNG active; positive | Species: MOUSE, Strain/Sex: C57BL/FEMALE, Route: INHALATION, Dose: 0, 0.02, 0.2, 2, 5 PPM 6 HR/D 5 D/WK FOR 1 YR (STUDY DURATION: 2 YR), Dose: 0, 0.02, 0.2, 2, 5 PPM 6 HR/D 5 D/WK FOR 1 YR (STUDY DURATION: 2 YR), Tumor Site: Type of Lesion: LUNG: ADENOMA, LIVER: ADENOMA, CARCINOMA, HEMATOPOIETIC SYSTEM: HEMANGIOMA, Tumor Site: Type of Lesion: LUNG: ADENOMA, LIVER: ADENOMA, CARCINOMA, HEMATOPOIETIC SYSTEM: HEMANGIOMA active; positive | Species: MOUSE, Strain/Sex: SWISS/FEMALE, Route: ORAL, Dose: 0.001% SOLUTION IN DRINKING WATER FOR LIFE (DAILY INTAKE: 0.078 MG) (STUDY DURATION: LIFETIME), Tumor Site: Type of Lesion: LUNG: ADENOMA, ADENOCARCINOMA, HEMATOPOIETIC SYSTEM: MALIGNANT LYMPHOMA, MAMMARY GLAND: ADENOCARCINOMA, Tumor Site: Type of Lesion: LUNG: ADENOMA, ADENOCARCINOMA, HEMATOPOIETIC SYSTEM: MALIGNANT LYMPHOMA, MAMMARY GLAND: ADENOCARCINOMA active; positive | Species: MOUSE, Strain/Sex: SWISS/MALE, Route: ORAL, Dose: 0.001% SOLUTION IN DRINKING WATER FOR LIFE (DAILY INTAKE: 0.102 MG) (STUDY DURATION: LIFETIME), Tumor Site: Type of Lesion: LUNG: ADENOMA, ADENOCARCINOMA, HEMATOPOIETIC SYSTEM: MALIGNANT LYMPHOMA active; positive
inactive: Species: DOG, Strain/Sex: BEAGLE/FEMALE, Route: INHALATION, Dose: 0, 0.2, 2 PPM 6 HR/D 5 D/WK FOR 1 YR (STUDY DURATION: 6 YR), Dose: 0, 0.2, 2 PPM 6 HR/D 5 D/WK FOR 1 YR (STUDY DURATION: 6 YR) inactive; negative | Species: DOG, Strain/Sex: BEAGLE/MALE, Route: INHALATION, Dose: 0, 0.2, 2 PPM 6 HR/D 5 D/WK FOR 1 YR (STUDY DURATION: 6 YR), Dose: 0, 0.2, 2 PPM 6 HR/D 5 D/WK FOR 1 YR (STUDY DURATION: 6 YR) inactive; negative | Species: RAT, Strain/Sex: F344/FEMALE, Route: INHALATION, Dose: 0, 0.02, 0.2, 2, 5 PPM 6 HR/D 5 D/WK FOR 1 YR (STUDY DURATION: 2 YR), Dose: 0, 0.02, 0.2, 2, 5 PPM 6 HR/D 5 D/WK FOR 1 YR (STUDY DURATION: 2 YR) inactive; negative | Species: RAT, Strain/Sex: F344/MALE, Route: INHALATION, Dose: 0, 0.02, 0.2, 2, 5 PPM 6 HR/D 5 D/WK FOR 1 YR (STUDY DURATION: 2 YR), Dose: 0, 0.02, 0.2, 2, 5 PPM 6 HR/D 5 D/WK FOR 1 YR (STUDY DURATION: 2 YR) inactive; negative
